Data: patent US6656942B2, “Orally active salts with tyrosine kinase activity” (Merck & Co., Inc., priority 2000, dated 2003)
Counter-ions that a name gives are not always drawn.

Tests used:
Assay type in all cases: physicochemical
[1] = Solubility and pH of salts of 4-9 prepared in situ; conditions: for solubility: 1.05 mole equivalents of acid, 100 μL of water, spun overnight, HPLC; for pH: pH of the liquid residue of the sample
Description: Two forms of the mesylate salt were made: Salt 4-9A above and Salt 4-9B below. Numerous salts of 4-9 were prepared in situ and analyzed using the procedure outlined below,
3) The reagents were mixed with a Vortex mixer and left to stand at room temperature or warmed if needed to dissolve the solid.
4) 100 μL of water were added to suspend the solid.
5) Tube was then covered with aluminum foil and spun overnight on a rotator.
6) The tube was then spun in a centrifuge for 10 minutes at 10,000 RPM.
7) An aliquot was removed from the sample and dried with nitrogen overnight to produce the solid residue (salt) which was analyzed via microscopy and DCS.
8) The liquid residue from the remaining sample was used to measure pH and determine the concentration of salt by HPLC.

[2] = Measurement of salt solubility: free base 1-11 treated with acid, suspended in water, HPLC; conditions: for pH: pH in equilibrium with the solid phase, most likely lower than pH of the salt in water; for solubility: salt made in situ with 1.05-1.1 molar equivalence of acid, suspended in water several days, method overestimates the solubility
Description: The pH and concentration of the compound in equilibrium with the solid phase was measured by HPLC (UV-Vis detection).

[3] = Solubility of free base 1-11 at room temperature in 0.05M aqueous buffers, water, organic solvents and HPβCD
Description: The solubility of 1-11 at room temperature was determined in 0.05M aqueous buffers, water and several organic solvents.

[4] = Solubility of crystalline mesylate salts 1-11A and 1-11B
Description: The amorphous mesylate salt was recrystallized from 50:50 Ethanol:THF to give a crystalline powder (Salt 1-11A). The X-ray powder diffraction pattern (XRPD) of the recrystallized mesylate salt 1-11A (FIG. 2) is indicative of crystalline material with multiple diffraction peaks between 5° and 30° 2-theta.
A second batch of crystalline mesylate salt (Salt 1-11B) was obtained by the following procdeure. To a stirred suspension of 1-11 (4.026 g, 9.22 mmol) in MeOH was slowly added at room temperature (RT) one equivalent of a 0.3M solution of methanesulfonic acid (30.73 mL). After all the solid had dissolved, the mixture was filtered into a flask and concentrated under reduced pressure while cooled to about 10° C. The resulting solid was suspended with 200 mL of ethylacetate, filtered, and dried to afford the mesylate salt. […] This crystalline form is different by XRPD than the one recrystallized from the amorphous salt in EtOH/THF (Salt 1-11A).

[5] = Aqueous solubility at room temperature, quantitated by HPLC; conditions: for aqueous solubility at room temperature / solubility: water, HPLC, room temperature; for crystallization out of the concentrated aqueous solution: time scale of the experiment (24 hours); for solubility: thermodynamic from solid
Description: The free base 2-1 is a yellow powder. […] The crystals appear plate-like with most of the particles below 10 microns. […] The aqueous solubility was measured using HPLC to quantitate the compound in suspension.
The mesylate salt 2-1A is a yellow powder. […] A broad non-reversible endotherm centered around 87° C. is attributed to loss of solvent/moisture. The aqueous solubility was measured using HPLC to quantitate the compound.
The HCl salt 2-1B was also a yellow powder. […] This indicates the presence of both amorphous and crystalline material. […] The aqueous solubility was measured using HPLC to quantitate the compound.
The free base is a yellow powder which contains particles that are birefringent under polarized light indicating the presence of crystalline material. […] The aqueous solubility was measured using HPLC to quantitate the compound in an aqueous suspension.
The HCl salt is also a yellow solid, which contains particles that are birefringent under polarized light indicating the presence of crystalline material. […] The aqueous solubility was measured using HPLC to quantitate the compound in suspension.
The yellow, mesylate salt was examined under polarized light by optical microscopy. […] It is possible that the small amount of crystalline solid went undetected by optical microscopy. The aqueous solubility was measured using HPLC to quantitate the compound in suspension.
This mesylate salt 4-9A, which is a yellow powder, was examined under polarized light by optical microscopy. The crystals appear birefringent under polarized light indicating crystallinity. The crystals appear plate-like with few agglomerates. […] The aqueous solubility was measured using HPLC to quantitate the compound in suspension.

COCCN(C)CCOc1ccc2[nH]c(-c3cc4ccccc4[nH]c3=O)cc2c1 [4-9 Free Base, 3-(5-{2-[(2-methoxyethyl)(methyl)amino]ethoxy}-1H-indol-2-yl)-2(1H)-quinolinone]
solubility ([1]; pH 6.75, thermodynamic from solid, read-out: Solubility): 75 µg/mL
pH [1]: 6.75

CS(=O)(=O)N1CCN(Cc2ccc3[nH]c(-c4cc5ccccc5[nH]c4=O)cc3c2)CC1 [Acetate salt of 1-11]
pH [2]: 3.3
solubility [2]: 91 µg/mL

CS(=O)(=O)N1CCN(Cc2ccc3[nH]c(-c4cc5ccccc5[nH]c4=O)cc3c2)CC1 [Besylate salt of 1-11]
pH [2]: 2.4
solubility [2]: 3.8 µg/mL

CS(=O)(=O)N1CCN(Cc2ccc3[nH]c(-c4cc5ccccc5[nH]c4=O)cc3c2)CC1 [HBr salt of 1-11]
pH [2]: 2.9
solubility [2]: 200 µg/mL

CS(=O)(=O)N1CCN(Cc2ccc3[nH]c(-c4cc5ccccc5[nH]c4=O)cc3c2)CC1 [HCl salt of 1-11]
pH [2]: 2.3
solubility [2]: 430 µg/mL

COCCN(C)CCOc1ccc2[nH]c(-c3cc4ccccc4[nH]c3=O)cc2c1 [HCl salt of 4-9]
solubility [1]: 22400 µg/mL
pH [1]: 2.34

CS(=O)(=O)N1CCN(Cc2ccc3[nH]c(-c4cc5ccccc5[nH]c4=O)cc3c2)CC1 [Maleate salt of 1-11]
pH [2]: 2.5
solubility [2]: 160 µg/mL

COCCN(C)CCOc1ccc2[nH]c(-c3cc4ccccc4[nH]c3=O)cc2c1 [Mesylate 4-9B]
solubility [1]: 22000 µg/mL
pH [1]: 5.08

CS(=O)(=O)N1CCN(Cc2ccc3[nH]c(-c4cc5ccccc5[nH]c4=O)cc3c2)CC1 [Mesylate salt of 1-11]
pH [2]: 2.3
solubility [2]: 580 µg/mL

CS(=O)(=O)N1CCN(Cc2ccc3[nH]c(-c4cc5ccccc5[nH]c4=O)cc3c2)CC1 [Salt 1-11, 3-[5-(4-Methanesulfonyl-piperazin-1-ylmethyl)-1H-indol-2-yl]-1H-quinolin-2-one]
solubility ([3]; 0.05 M carbonate buffer, pH 10.09, aqueous buffer, 0.05 M Carbonate, pHfinal 10.09, room temperature): 79 µg/mL
solubility ([3]; 0.05 M carbonate buffer, pH 11.15, aqueous buffer, 0.05 M Carbonate, pHfinal 11.15, room temperature): 77 µg/mL
solubility ([3]; 0.05 M citrate buffer, pH 3.23, aqueous buffer, 0.05 M Citrate, pHfinal 3.23, room temperature): 92 µg/mL
solubility ([3]; 0.05 M citrate buffer, pH 4.15, aqueous buffer, 0.05 M Citrate, pHfinal 4.15, room temperature): 73 µg/mL
solubility ([3]; 0.05 M citrate buffer, pH 5.07, aqueous buffer, 0.05 M Citrate, pHfinal 5.07, room temperature): 70 µg/mL
solubility ([3]; 0.05 M citrate buffer, pH 6.01, aqueous buffer, 0.05 M Citrate, pHfinal 6.01, room temperature): 71 µg/mL
solubility ([3]; 0.05 M phosphate buffer, pH 6.96, aqueous buffer, 0.05 M Phosphate, pHfinal 6.96, room temperature): 71 µg/mL
solubility ([3]; 0.05 M phosphate buffer, pH 7.93, aqueous buffer, 0.05 M Phosphate, pHfinal 7.93, room temperature): 74 µg/mL
solubility ([3]; 0.05 M phosphate buffer, pH 8.86, aqueous buffer, 0.05 M Phosphate, pHfinal 8.86, room temperature): 73 µg/mL
solubility ([3]; 25% HPβCD in water, aqueous with cosolvent or surfactant or cyclodextrin, 25% HPβCD, native pH in water (pH = 7.5)): 168 µg/mL
solubility ([3]; 50% aqueous Can (probably ACN, acetonitrile), aqueous with cosolvent or surfactant or cyclodextrin, 50% Aqueous Can, room temperature): 60 µg/mL
solubility ([3]; Water, room temperature): 0.03 µg/mL
solubility ([3]; organic solvent or mixture, Acetonitrile, room temperature): 84 µg/mL
solubility ([3]; organic solvent or mixture, Ethanol, room temperature): 19 µg/mL
solubility ([3]; organic solvent or mixture, Isopropanol, room temperature): 6.5 µg/mL
solubility ([3]; pH 2.45, simulated gastric fluid, 0.01 N HCl, pHfinal 2.45, room temperature): 400 µg/mL
solubility ([3]; pH 3, aqueous with cosolvent or surfactant or cyclodextrin, 10% HPβCD, pH adjusted to ca. 3.0 with HCl): 1740 µg/mL
solubility ([3]; pH 3, aqueous with cosolvent or surfactant or cyclodextrin, 15% HPβCD, pH adjusted to ca. 3.0 with HCl): 2350 µg/mL
solubility ([3]; pH 3, aqueous with cosolvent or surfactant or cyclodextrin, 20% HPβCD, pH adjusted to ca. 3.0 with HCl): 3570 µg/mL
solubility ([3]; pH 3, aqueous with cosolvent or surfactant or cyclodextrin, 25% HPβCD, pH adjusted to ca. 3.0 with HCl): 4560 µg/mL

CS(=O)(=O)N1CCN(Cc2ccc3[nH]c(-c4cc5ccccc5[nH]c4=O)cc3c2)CC1 [Salt 1-11A]
solubility ([4]; Acetonitrile): 63 µg/mL
solubility ([4]; Isopropanol): 20 µg/mL
solubility ([4]; Water): 173 µg/mL

CS(=O)(=O)N1CCN(Cc2ccc3[nH]c(-c4cc5ccccc5[nH]c4=O)cc3c2)CC1 [Salt 1-11B]
solubility ([4]; Acetonitrile): 30 µg/mL
solubility ([4]; Isopropanol): 3 µg/mL
solubility ([4]; Water): 90 µg/mL

CN1CCN(Cc2ccc3[nH]c(-c4cc5ccccc5[nH]c4=O)cc3c2)CCC1=O [Salt 2-1, 3-[5-(4-Methyl-5-oxo-[1,4]diazepan-1-ylmethyl)-1H-indol-2-yl]-1H-quinolin-2-one]
aqueous solubility at room temperature [5]: 28 µg/mL

CN1CCN(Cc2ccc3[nH]c(-c4cc5ccccc5[nH]c4=O)cc3c2)CCC1=O [Salt 2-1A, 4-Methyl-5-oxo-1-[2-(2-oxo-1.2-dihydro-quinolin-3-yl)-1H-indol-5-ylmethyl]-[1,4]diazepan-1-ium; methanesulfonate; methanesulfonate]
crystallization out of the concentrated aqueous solution [5]: no crystallization was observed
aqueous solubility at room temperature [5]: greater than 9.89 mg/mL

CN1CCN(Cc2ccc3[nH]c(-c4cc5ccccc5[nH]c4=O)cc3c2)CCC1=O.Cl [Salt 2-1B, 4-Methyl-5-oxo-1-[2-(2-oxo-1,2-dihydro-quinolin-3-yl)-1H-indol-5-ylmethyl]-[1,4]diazepan-1-ium; methanesulfonate; chloride]
crystallization out of the concentrated aqueous solution [5]: did not crystallize out
solubility [5]: > 10200 µg/mL

O=C(CO)N1CCN(Cc2ccc3[nH]c(-c4cc5ccccc5[nH]c4=O)cc3c2)CC1 [Salt 3-10, 3-{5-[4-(2-Hydroxy-ethanoyl)-piperazin-1-ylmethyl]-1H-indol-2-yl}-1H-quinolin-2-one]
aqueous solubility at room temperature [5]: 63.5 µg/mL

O=C(CO)N1CCN(Cc2ccc3[nH]c(-c4cc5ccccc5[nH]c4=O)cc3c2)CC1 [Salt 3-10A, 4-(2-Hydroxy-ethanoyl) 1-[2-(2-oxo-1,2-dihydro-quinolin-3-yl)-1H-indol-5-ylmethyl]-piperazin-1H-ium; chloride]
aqueous solubility at room temperature [5]: 1310 µg/mL

O=C(CO)N1CCN(Cc2ccc3[nH]c(-c4cc5ccccc5[nH]c4=O)cc3c2)CC1 [Salt 3-10B, 4-(2-Hydroxy-ethanoyl)-1-[2-(2-oxo-1,2-dihydro-quinolin-3-yl)-1H-indol-5-ylmethyl]-piperazin-1-ium; methanesulfonate]
aqueous solubility at room temperature ([5]; methanesulfonate): 2430 µg/mL

COCCN(C)CCOc1ccc2[nH]c(-c3cc4ccccc4[nH]c3=O)cc2c1.CS(=O)(=O)O [Salt 4-9A, 2-methoxy-N-methyl-N-(2-{[2-(2-oxo-1,2-dihydroquinolin-3-yl)-1H-indol-5-yl]oxy}ethyl)ethanaminium methanesulfonate]
solubility [5]: 1500 µg/mL

CS(=O)(=O)N1CCN(Cc2ccc3[nH]c(-c4cc5ccccc5[nH]c4=O)cc3c2)CC1 [Sulfate salt of 1-11]
pH [2]: 1.5
solubility [2]: 130 µg/mL

COCCN(C)CCOc1ccc2[nH]c(-c3cc4ccccc4[nH]c3=O)cc2c1 [Sulfate salt of 4-9]
solubility [1]: 4350 µg/mL
pH [1]: 1.40
